Data published in ChEMBL document CHEMBL1136548, “1,3,4 Trisubstituted pyrrolidine CCR5 receptor antagonists bearing 4-aminoheterocycle substituted piperidine side chains” (Bioorg Med Chem Lett, 2003).
pIC50: −log10 of the molar value.

Columns and labels:
[1] = biological target: T1, C-C chemokine receptor type 5 (Homo sapiens, UniProt P51681); assay: Inhibition over 48 hr of BAL strain HIV infection of HeLa Magi cells expressing CCR5; Not active; type: functional, cell-based
Target sequence in this assay (P51681 whole entry): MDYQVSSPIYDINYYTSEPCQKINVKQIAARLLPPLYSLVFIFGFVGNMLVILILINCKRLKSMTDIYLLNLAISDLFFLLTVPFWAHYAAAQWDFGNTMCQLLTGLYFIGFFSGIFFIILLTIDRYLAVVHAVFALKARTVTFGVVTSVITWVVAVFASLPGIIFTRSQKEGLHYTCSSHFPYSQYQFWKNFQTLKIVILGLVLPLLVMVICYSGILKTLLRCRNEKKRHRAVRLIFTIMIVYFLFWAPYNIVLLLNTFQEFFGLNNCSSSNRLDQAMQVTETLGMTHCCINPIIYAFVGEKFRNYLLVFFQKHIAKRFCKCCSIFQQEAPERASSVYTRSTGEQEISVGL

[2] = biological target: T1, C-C chemokine receptor type 5; assay: Displacement inhibition of 125-I labeled MIP-alpha from CCR5 receptor expressed on CHO cell membranes
Target sequence in this assay (P51681 whole entry): as above

[3] = biological target: T1, C-C chemokine receptor type 5; assay: Compound tested for inhibiting the displacement of 125-I labeled MIP-alpha from CCR5 receptor expressed on CHO cell membranes at 1000 nM
Target sequence in this assay (P51681 whole entry, looked up): as the sequence (P51681 whole entry) above

[4] = Half life was evaluated in rat; type: ADME, organism-based; conditions: in vivo
[5] = Maximum plasma concentration was evaluated in rat; type: ADME, organism-based
[6] = Pharmacokinetic parameter expressed as plasma clearance in rat; type: ADME, organism-based; conditions: read-out: Clp
[7] = Bioavailability in rat; type: ADME, organism-based; conditions: in vivo
[8] = Tested for antiviral activity in peripheral blood mononuclear cells (PBMC); type: functional
[9] = biological target: T1, C-C chemokine receptor type 5; assay: Inhibition over 48 hr of BAL strain HIV infection of HeLa Magi cells expressing CCR5; type: functional, cell-based
Target sequence in this assay (P51681 whole entry, looked up): as the sequence (P51681 whole entry) above

[10] = biological target: T1, C-C chemokine receptor type 5; assay: Inhibition over 48 hr of BAL strain HIV infection of HeLa Magi cells expressing CCR5; not active; type: functional, cell-based
Target sequence in this assay (P51681 whole entry): as above

C=CCN(c1ccccc1)C1CCN(C[C@H]2CN(C(=O)C3CCCCC3)C[C@@H]2c2ccccc2)CC1
IC50 [1]: Not Active
pIC50 [2]: 7.38

CCCCCCN(c1ccccn1)C1CCN(C[C@H]2CN(C(=O)C3CCCCC3)C[C@@H]2c2ccccc2)CC1
inhibition [3]: 64%

CCCN(c1ccccn1)C1CCN(C[C@H]2CN(C(=O)C3CCC3)C[C@@H]2c2ccccc2)CC1
pIC50 [2]: 8.00

O=C(C1CCCCC1)N1C[C@H](CN2CCC(N(CC3CC3)c3ccccn3)CC2)[C@@H](c2ccccc2)C1
pIC50 [2]: 8.05

C=CCN(c1ccc(C(F)(F)F)cn1)C1CCN(C[C@H]2CN(C(=O)C3CCCCC3)C[C@@H]2c2ccccc2)CC1
pIC50 [2]: 7.68

CCCN(c1ncccn1)C1CCN(C[C@H]2CN([C@H](CC3CCC3)C(=O)O)C[C@@H]2c2cccc(F)c2)CC1
half-life [4]: 1.1 h
pIC50 [2]: 8.74
Cmax [5]: 256 nM
clearance [6]: 28 mL/min/kg
bioavailability [7]: 29%

CCCN(c1ncccn1)C1CCN(C[C@H]2CN([C@@H](C(=O)O)C3CCCCC3)C[C@@H]2c2cccc(F)c2)CC1
pIC50 [2]: 8.80
Cmax [5]: 140 nM
clearance [6]: 13 mL/min/kg
bioavailability [7]: 20%

CCCN(c1nccc(C(F)(F)F)n1)C1CCN(C[C@H]2CN([C@H](CC3CCC3)C(=O)O)C[C@@H]2c2cccc(F)c2)CC1
half-life [4]: 1.5 h
pIC50 [2]: 8.92
Cmax [5]: 177 nM
clearance [6]: 13 mL/min/kg
bioavailability [7]: 25%

O=C(O)[C@@H](CC1CCC1)N1C[C@H](CN2CCC(N(CC3CC3)c3ncccn3)CC2)[C@@H](c2cccc(F)c2)C1
half-life [4]: 0.7 h
pIC50 [2]: 8.96
clearance [6]: 28 mL/min/kg

CCCN(c1cccnc1)C1CCN(C[C@H]2CN([C@@H](C(=O)O)C3CCCCC3)C[C@@H]2c2ccccc2)CC1
pIC50 [2]: 8.30
Cmax [5]: 19 nM
clearance [6]: 106 mL/min/kg
bioavailability [7]: 8%

CCCN(c1ncc(F)cn1)C1CCN(C[C@H]2CN([C@H](CC3CCC3)C(=O)O)C[C@@H]2c2cccc(F)c2)CC1
pIC50 [2]: 9.40

CCCN(c1ccccn1)C1CCN(C[C@H]2CN(C(=O)N3CCCC3)C[C@@H]2c2ccccc2)CC1
pIC50 [2]: 8.05

C=CCN(c1ncccn1)C1CCN(C[C@H]2CN(C(=O)C3CCCCC3)C[C@@H]2c2ccccc2)CC1
pIC50 [2]: 7.92

O=C(C1CCCCC1)N1C[C@H](CN2CCC(N(Cc3ccccc3)c3ccccn3)CC2)[C@@H](c2ccccc2)C1
inhibition [3]: 78%

CCCN(c1ccccn1)C1CCN(C[C@H]2CN(C(=O)C3CCCCC3)C[C@@H]2c2ccccc2)CC1
pIC50 [2]: 7.92

CCCN(c1ccncn1)C1CCN(C[C@H]2CN([C@H](CC3CCC3)C(=O)O)C[C@@H]2c2cccc(F)c2)CC1
half-life [4]: 0.9 h
pIC50 [2]: 8.92
clearance [6]: 90 mL/min/kg

CCCN(c1ncccn1)C1CCN(C[C@H]2CN([C@@H](C(=O)O)C3CCCCC3)C[C@@H]2c2ccccc2)CC1
pIC50 [2]: 8.18
Cmax [5]: 49 nM
clearance [6]: 17 mL/min/kg
bioavailability [7]: 8%

CCN(c1ncccn1)C1CCN(C[C@H]2CN([C@H](CC3CCC3)C(=O)O)C[C@@H]2c2cccc(F)c2)CC1
half-life [4]: 1.1 h
pIC50 [2]: 8.82
Cmax [5]: 210 nM
clearance [6]: 26 mL/min/kg
bioavailability [7]: 33%

CCCN(c1ccccn1)C1CCN(C[C@H]2CN(C(=O)c3ccccc3Cl)C[C@@H]2c2ccccc2)CC1
pIC50 [2]: 7.85

CCCN(c1ncc(C(F)(F)F)cn1)C1CCN(C[C@H]2CN([C@H](CC3CCC3)C(=O)O)C[C@@H]2c2cccc(F)c2)CC1
half-life [4]: 2.8 h
pIC50 [2]: 9.30
Cmax [5]: 433 nM
clearance [6]: 9 mL/min/kg
bioavailability [7]: 72%

C=CCN(c1ccccn1)C1CCN(C[C@H]2CN(C(=O)C3CCCCC3)C[C@@H]2c2ccccc2)CC1
pIC50 [2]: 8.22

CCCN(c1ccccn1)C1CCN(C[C@H]2CN([C@@H](C(=O)O)C3CCCCC3)C[C@@H]2c2ccccc2)CC1
pIC50 [2]: 8.41
Cmax [5]: 53 nM
clearance [6]: 53 mL/min/kg
bioavailability [7]: 20%

C=CCN(c1cccnc1)C1CCN(C[C@H]2CN(C(=O)C3CCCCC3)C[C@@H]2c2ccccc2)CC1
pIC50 [2]: 7.64

C=CCN(C(=O)OCc1ccc([N+](=O)[O-])cc1)C1CCN(C[C@H]2CN(C(=O)c3ccccc3Cl)C[C@@H]2c2ccccc2)CC1
IC95 [8]: 31 nM
IC90 [9]: 1 nM

C=CCN(c1ccncc1)C1CCN(C[C@H]2CN(C(=O)C3CCCCC3)C[C@@H]2c2ccccc2)CC1
pIC50 [2]: 7.18
IC50 [10]: Not Active

CCCN(c1nccc(OC)n1)C1CCN(C[C@H]2CN([C@H](CC3CCC3)C(=O)O)C[C@@H]2c2cccc(F)c2)CC1
pIC50 [2]: 9.10

CCCN(c1cncnc1)C1CCN(C[C@H]2CN([C@H](CC3CCC3)C(=O)O)C[C@@H]2c2cccc(F)c2)CC1
half-life [4]: 0.3 h
pIC50 [2]: 8.77
Cmax [5]: 28 nM
clearance [6]: 81 mL/min/kg
bioavailability [7]: 8%
